Where two headings read alike, the source gives them in different places.
Key:
[1] = system: carrageenan-induced edema; test: carrageenan-induced edema controlling test, sole edema method (Experiments 1 and 2); assay type: in vivo, male S.D. rats; settings: for Control rate (carrageenan-induced edema): groups of 8 rats; for ED50: Rattus norvegicus, po, read-out: Median effective dose for carrageenan-induced edema ED50
Procedure: Effects of controlling carrageenan-induced edema were examined by the sole edema method, see Winter et al.; Pro. […] Exp. Biol. Med., 111, 544 (1962), wherein carrageenan was used as an inflaming agent and male S.D. rats weighing 150-180 g were used as the test animals (each group comprised 5 rats).
The test compound was dissolved in sesame oil and the solution was administered perorally to the rats 6 hours before the administration of the inflaming agent. The volumes of the hind leg soles were measured 3 hours after the administration of the inflaming agent. […] [formula] wherein a is the volume of the hind leg sole before the edema induction and b is the corresponding value after the edema induction. [formula] wherein c represents the average edema rate of the control group and d represents the edema rate of each animal to which the test compound was given.
Carrageenan-induced edema control rates were determined according to formula (2) in the same manner as in Experiment 1 except that each group comprised 8 rats.

[2] = system: adjuvant-induced arthritis; test: adjuvant-induced arthritis controlling test; assay type: in vivo, F-344 rats; settings: po; for ED50: Rattus norvegicus, 456 h, read-out: Median effective dose for adjuvant-induced arthritis ED50
Procedure: Arthritis was induced in F-344 rates (6 weeks) (Japanese Charles Liver) according to the method of Winder, C. V., et al; Arthritis Rheum. 12, 472-482 (1969) and the controlling effects were examined. 0.05 ml. of a suspension (6 mg/ml) of Mycobacterium butyricum (Difco) in liquid paraffin was in]ected in the sole of the right leg of each rat to induce arthritis. […] The former was dissolved in sesame oil and the latter was suspended in acacia. The administration of the test compounds was started on the same day as the adjuvant injection. The test compounds were administered perorally every day for 19 days.

[3] = continuous peroral administration for one week; assay type: in vivo, SD rats; settings: 50 mg/kg per day and 200 mg/kg per day continuously for one week
gastric membranes = test: effects on gastric membranes of normal rats (ulceration); assay type: in vivo, Wistar ST rats
Text: Four hours thereafter, the ulceration conditions in the gastric membranes were examined.

in vivo = settings: rat, po, peroral, 20% solution in sesame oil
[4] = system: cold restraint stress-induced ulcer, gastric membranes; test: worsening of cold restraint stress-induced ulcer; assay type: in vivo, Wistar rats
Procedure: Cold restraint stress was applied to Wistar rats (7 weeks old) by a conventional method. […] Two hours after the application of stress, the length of ulcer (ulcer index) in the gastric membranes was measured.

[5] = comparison value for Indomethacin; species, sex and source not given; cited from earlier work
[6] = peroral, 6 hours before inflaming agent, measured 3 hours after, groups of 5 rats

CC(C)=CCCC(C)=CCCC(C)=CCCC(C)=CCOC(=O)Cc1ccccc1Nc1c(Cl)cccc1Cl [Compound A, 2-[(2,6-Dichlorophenyl)amino]phenylacetic acid 3,7,11,15-tetramethyl-2,6,10,14-hexadecatetraenyl ester]
Control rate (carrageenan-induced edema) ([1]; dose 18 mg/kg, peroral): 34%

CC(C)=CCCC(C)=CCCC(C)=CCOC(=O)C(C)c1ccc(CC(C)C)cc1 (stereo not shown) [Compound B, 2-(4-isobutylphenyl)propionic acid 3,7,11-trimethyl-2,6,10-dodecatrienyl ester]
Control rate (carrageenan-induced edema) ([1]; dose 60 mg/kg, peroral): 30%

COc1ccc2c(c1)c(CC(=O)OCC=C(C)CCC=C(C)CCC=C(C)C)c(C)n2C(=O)c1ccc(Cl)cc1 [Compound C, 1-(p-Chlorobenzoyl)-2-methyl-5-methoxy-3-indolylacetic acid 3,7,11-trimethyl-2,6,10-dodecatrienyl ester]
ED50 [1, 6]: 6.5 mg/kg | Control rate (carrageenan-induced edema) ([1]; dose 9 mg/kg, peroral): 40% | Control rate (carrageenan-induced edema) ([1]; dose 18 mg/kg, peroral): 42% | ED50 ([2]; peroral, every day for 19 days): 3.6 mg/kg | health problem [3]: no health problem was observed | Number of ulcerated rats (gastric membranes; dose 153 mg/kg, peroral, 4 hours, fasted normal rats): 0/5

COc1ccc2c(c1)c(CC(=O)OCC=C(C)CCC=C(C)CCC=C(C)CCC=C(C)C)c(C)n2C(=O)c1ccc(Cl)cc1 [Compound D, 1-(p-Chlorobenzoyl)-2-methyl-5-methoxy-3-indolylacetic acid 3,7,11,15-tetramethyl-2,6,10,14-hexadecatetraenyl ester]
Control rate (carrageenan-induced edema) ([1]; dose 9 mg/kg, peroral): 22% | Control rate (carrageenan-induced edema) ([1]; dose 18 mg/kg, peroral): 22% | LD50 (in vivo; female SD rats, read-out: LD50 female): 1530 to 3160 mg/kg | LD50 (in vivo; male SD rats, read-out: LD50 male): 2000 to 2520 mg/kg | health problem [3]: no health problem was observed

CC(=O)Oc1ccccc1C(=O)OCC=C(C)CCC=C(C)C [Compound E, Acetylsalicylic acid 3,7-dimethyl-2,6-octadienyl ester]
Control rate (carrageenan-induced edema) ([1]; dose 400 mg/kg, peroral): 52%

CC(C)Cc1ccc(C(C)C(=O)O)cc1 (stereo not shown) [Ibuprofen, reference compound]
ED50 [1, 6]: 7.7 mg/kg

COc1ccc2c(c1)c(CC(=O)O)c(C)n2C(=O)c1ccc(Cl)cc1 [Indomethacin]
ED50 ([1]; 3 h): 2.9 mg/kg | Control rate (carrageenan-induced edema) ([1]; dose 9 mg/kg, peroral): 38% | ED50 [2]: 1.5 mg/kg | LD50/ED50 ratio in the adjuvant-induced arthritis test ([2]; rat, in vivo): 14-15 | Ulcer index (mean ± S.E.) (gastric membranes; dose 20 mg/kg, peroral, 4 hours, fasted normal rats): 18.0 ± 3.2 | Number of ulcerated rats (gastric membranes; rat, in vivo, 20 mg/kg): 5/5 | Ulcer index (Mean ± S.E.), length of ulcer ([4]; dose 20.0 mg/kg, peroral, two hours after application of stress): 36.5 ± 7.3 | macroscopic observation of gastric ulcer ([4]; rat, in vivo): linear ulcer accompanied with copious bleeding was clearly recognized | stress-induced ulcer ([4]; rat, in vivo): increased significantly | LD50 [5]: 18 mg/kg

From patent publication US4709079A, “Polyprenyl compounds, process for the production thereof and medicines containing same” (priority 1981, dated 1987)
